Counter-ions that a name gives are not always drawn. Like-named read-outs stand apart in the source and are kept apart here.

For one test, the target named is T1, TBK1 (Homo sapiens, UniProt Q9UHD2).
T1 sequence (Q9UHD2 1-729): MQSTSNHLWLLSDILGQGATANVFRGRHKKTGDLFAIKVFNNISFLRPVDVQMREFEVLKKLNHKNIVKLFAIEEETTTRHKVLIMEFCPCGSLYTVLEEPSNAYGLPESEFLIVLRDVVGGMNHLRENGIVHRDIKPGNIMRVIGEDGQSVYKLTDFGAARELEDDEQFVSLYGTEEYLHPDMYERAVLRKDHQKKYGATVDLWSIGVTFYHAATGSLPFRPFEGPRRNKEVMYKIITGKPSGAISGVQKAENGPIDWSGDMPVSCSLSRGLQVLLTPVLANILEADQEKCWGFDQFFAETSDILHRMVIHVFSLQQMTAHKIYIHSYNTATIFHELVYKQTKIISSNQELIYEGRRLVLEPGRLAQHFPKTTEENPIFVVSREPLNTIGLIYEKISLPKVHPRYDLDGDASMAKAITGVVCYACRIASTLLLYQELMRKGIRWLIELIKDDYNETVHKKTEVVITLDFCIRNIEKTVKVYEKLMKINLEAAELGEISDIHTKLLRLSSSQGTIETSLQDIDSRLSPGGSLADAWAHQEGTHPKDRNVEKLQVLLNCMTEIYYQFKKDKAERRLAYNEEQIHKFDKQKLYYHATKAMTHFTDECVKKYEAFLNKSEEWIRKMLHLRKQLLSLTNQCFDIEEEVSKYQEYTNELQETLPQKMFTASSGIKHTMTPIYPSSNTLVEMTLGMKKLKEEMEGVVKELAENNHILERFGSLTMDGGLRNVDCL
Briefly: TBK Biochemical Assay. Conditions: read-out: TBK1 IC50. In short, it runs like this: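 TBK1 enzyme and substrate incubated with compounds (10-point 1:4 dilution, top 30 uM final, 1% DMSO) for 90 min at 25° C, then stopped. Substrate/product peaks read by microfluidic mobility-shift (Caliper LabChip); 10 uM staurosporine as full-inhibition control.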

The target of a further test is T2, IKKε (Homo sapiens, UniProt Q14164).
T2 sequence (Q14164 1-716): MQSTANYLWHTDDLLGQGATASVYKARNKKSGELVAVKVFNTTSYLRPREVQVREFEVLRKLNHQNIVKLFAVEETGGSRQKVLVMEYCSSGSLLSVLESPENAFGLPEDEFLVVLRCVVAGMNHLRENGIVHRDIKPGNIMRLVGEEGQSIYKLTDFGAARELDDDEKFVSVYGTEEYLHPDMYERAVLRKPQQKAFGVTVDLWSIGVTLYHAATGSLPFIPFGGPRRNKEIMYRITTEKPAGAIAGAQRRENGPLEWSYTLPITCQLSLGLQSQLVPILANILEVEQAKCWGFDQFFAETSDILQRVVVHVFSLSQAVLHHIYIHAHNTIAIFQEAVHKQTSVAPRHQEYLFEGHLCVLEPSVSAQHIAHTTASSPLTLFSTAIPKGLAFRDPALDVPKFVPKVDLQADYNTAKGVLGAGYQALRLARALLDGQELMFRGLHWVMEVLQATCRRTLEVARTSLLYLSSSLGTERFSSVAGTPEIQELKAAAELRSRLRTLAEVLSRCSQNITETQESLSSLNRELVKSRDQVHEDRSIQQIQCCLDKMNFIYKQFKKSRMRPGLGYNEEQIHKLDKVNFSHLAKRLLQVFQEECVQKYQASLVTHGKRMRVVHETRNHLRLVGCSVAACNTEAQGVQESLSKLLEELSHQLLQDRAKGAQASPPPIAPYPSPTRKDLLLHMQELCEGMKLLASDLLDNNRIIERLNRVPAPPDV
Briefly: IKKe Biochemical Assay. The following applies: read-out: IKKε IC50. In a few lines:
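Recombinant IKKε and substrate were incubated with compound (10-point 1:4 series, top 30 uM final, 1% DMSO) for 90 min at 25° C, then stopped. Substrate-to-product conversion was read by LabChip microfluidic mobility shift; 10 uM staurosporine served as full-inhibition wells.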

The subject of test [1] is phosphorylation of the IRF-3 protein in MDA-MB-468 cells. Kind of test: pIRF3 immunocytochemistry cell based assay. Conditions: Homo sapiens. In a few lines: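 MDA-MB-468 cells got compounds (10-point, 3-fold from 10 uM) for 1 h at 37 °C, then 10 ug/ml Poly(I:C) for 2 h. Fixed, permeabilized cells were immunostained for pIRF3 with AlexaFluor488 and counterstained with PI. % phosphorylation was read by laser scanning cytometry, and IC50 curves were fitted.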

Where [2] appears, read: MDA-MB-468 cells, Poly(I:C) stimulation, read-out: pIRF3 IC50.
Setting [3] is: MDA-MB-468, read-out: pIRF3 IC50.

For `COc1cc(C(=O)NC2CNCC(F)(F)C2)ccc1-c1cc2nccc(-c3ccc(OC4CCOCC4)c(C#N)c3)c2o1` (stereo not drawn) [Compound 98, 4-{7-[3-Cyano-4-(tetrahydro-pyran-4-yloxy)-phenyl]-furo[3,2-b]pyridin-2-yl}-N-(5,5-difluoro-piperidin-3-yl)-3-methoxy-benzamide hydrochloride], the IC50 (usually the concentration that gives 50% inhibition) at TBK1 was under 100 nM; on IKKε, under 100 nM; in test [1] (setting [2]) it was 100 to 1000 nM.

In the case of `COc1cc(C(=O)N2CCCCN2)cnc1-c1cc2nccc(-c3ccc(OC4CCOCC4)c(C#N)c3)c2o1` [Compound 407, 5-(2-[5-[(1,2-diazinan-1-yl)carbonyl]-3-methoxypyridin-2-yl]furo[3,2-b]pyridin-7-yl)-2-(oxan-4-yloxy)benzonitrile hydrochloride], the IC50 was under 100 nM at TBK1, under 100 nM at IKKε and 100 to 1000 nM in test [1] (setting [2]).

Consider `COc1cc(C(=O)N[C@H]2[C@@H]3C[C@H]2CN(C)C3)cnc1-c1cc2nccc(-c3ccc(OC4CCOCC4)c(C#N)c3)c2o1` [Compound 397, 6-{7-[3-Cyano-4-(tetrahydro-pyran-4-yloxy)-phenyl]-furo[3,2-b]pyridin-2-yl}-5-methoxy-N-((1S,5R,6R)-3-methyl-3-aza-bicyclo[3.10.1]hept-6-yl)-nicotinamide], for which the concentration for half-maximal inhibition (IC50) (on TBK1; on IKKε; in test [1] (setting [2])) was under 100 nM in each case.

Take `N#Cc1cc(-c2ccnc3cc(-c4ccc(C(=O)N5CC[C@H](F)C5)cc4)oc23)ccc1OC1CCOCC1` [Compound 136, 5-{2-[4-((S)-3-Fluoro-pyrrolidine-1-carbonyl)-phenyl]-furo[3,2-b]pyridin-7-yl}-2-(tetrahydro-pyran-4-yloxy)-benzonitrile]: the IC50 at TBK1 is under 100 nM; on IKKε it was under 100 nM; in test [1] (setting [2]), 1000 to 5000 nM.

`COc1cc(C(=O)NCC(C)(C)N(C)C)ccc1-c1cc2nccc(-c3ccc(OC4CCOCC4)c(C#N)c3)c2o1` [Compound 500, 4-{7-[3-Cyano-4-(tetrahydro-pyran-4-yloxy)-phenyl]-furo[3,2-b]pyridin-2-yl}-N-(2-dimethylamino-2-methyl-propyl)-3-methoxy-benzamide]: the values for the IC50 (at TBK1; on IKKε; in test [1] (setting [2])) were under 100 nM, under 100 nM and 100 to 1000 nM, respectively.

Consider `COc1cc(C(=O)NCC2(C)COC2)ccc1-c1cc2nccc(-c3ccc(OC4CCOCC4)c(C#N)c3)c2o1` [Compound 59, 4-{7-[3-Cyano-4-(tetrahydro-pyran-4-yloxy)-phenyl]-furo[3,2-b]pyridin-2-yl}-3-methoxy-N-(3-methyl-oxetan-3-ylmethyl)-benzamide], for which the IC50 on TBK1 was under 100 nM; at IKKε it was under 100 nM; in test [1] (setting [2]) it was 100 to 1000 nM.

For `COc1cc(C(=O)N2CC3COCC3C2)cnc1-c1cc2nccc(-c3ccc(NC4CCOCC4)c(C#N)c3)c2o1` (stereo not drawn) [Compound 420, 5-[2-[5-([hexahydro-1H-furo[3,4-c]pyrrol-5-yl]carbonyl)-3-methoxypyridin-2-yl]furo[3,2-b]pyridin-7-yl]-2-[(oxan-4-yl)amino]benzonitrile], the IC50 at TBK1 is under 100 nM; at IKKε, under 100 nM; in test [1] (setting [2]), 100 to 1000 nM.

`COc1cc(C(=O)NC2CC(O)C2)ccc1-c1cc2nccc(-c3ccc(NC4CCOCC4)c(C#N)c3)c2o1` (stereo not drawn) [Compound 122, 4-{7-[3-Cyano-4-(tetrahydro-pyran-4-ylamino)-phenyl]-furo[3,2-b]pyridin-2-yl}-N-(3-hydroxy-cyclobutyl)-3-methoxy-benzamide]: the IC50 is under 100 nM at TBK1, under 100 nM at IKKε and 100 to 1000 nM in test [1] (setting [2]).

For `COc1cc(C(=O)NC2CC(O)C2)ccc1-c1cc2nccc(-c3ccc(OC4CCOCC4)c(C#N)c3)c2o1` (stereo not drawn) [Compound 75, 4-{7-[3-Cyano-4-(tetrahydro-pyran-4-yloxy)-phenyl]-furo[3,2-b]pyridin-2-yl}-N-(3-hydroxy-cyclobutyl)-3-methoxy-benzamide], the half-maximal inhibitory concentration (IC50) on TBK1 was under 100 nM; at IKKε, under 100 nM; in test [1] (setting [2]) it was 100 to 1000 nM.

With `COc1cc(-c2n[nH]c(=O)o2)ccc1-c1cc2nccc(-c3ccc(OC4CCOCC4)c(C#N)c3)c2o1` [Compound 50, 5-{2-[2-Methoxy-4-(5-oxo-4,5-dihydro-[1,3,4]oxadiazol-2-yl)-phenyl]-furo[3,2-b]pyridin-7-yl}-2-(tetrahydro-pyran-4-yloxy)-benzonitrile], the IC50 at TBK1 was under 100 nM; at IKKε, under 100 nM; in test [1] (setting [2]) it was 100 to 1000 nM.

As for `COc1ccc(-c2ccnc3cc(-c4ccc(C(=O)N(C)C)cc4)oc23)cc1C#N` [Compound 167, 4-[7-(3-Cyano-4-methoxy-phenyl)-furo[3,2-b]pyridin-2-yl]-N,N-dimethyl-benzamide], the 50% inhibitory concentration (IC50) at TBK1 fell in the range of 100 to 1000 nM; on IKKε, 100 to 1000 nM; in test [1] (setting [2]) it was 1000 to 5000 nM.

Take `COc1cc(C(=O)NCC(C)(C)CN(C)C)ccc1-c1cc2nccc(-c3ccc(NC4CCOCC4)c(C#N)c3)c2o1` [Compound 516, 4-{7-[3-Cyano-4-(tetrahydro-pyran-4-ylamino)-phenyl]-furo[3,2-b]pyridin-2-yl}-N-(3-dimethylamino-2,2-dimethyl-propyl)-3-methoxy-benzamide]: the IC50 (on TBK1; on IKKε; in test [1] (setting [2])) was under 100 nM each time.

As for `COc1cc(C(=O)N2C[C@H]3C[C@@H]2CN3C)ccc1-c1cc2nccc(-c3ccc(NC4CCOCC4)c(C#N)c3)c2o1` [Compound 517], the IC50 (on TBK1; on IKKε; in test [1] (setting [2])) was under 100 nM throughout.

As for `COc1cc(C(=O)N[C@H]2COC[C@@H]2N(C)C)ccc1-c1cc2nccc(-c3ccc(OC4CCOCC4)c(C#N)c3)c2o1` [Compound 346, 4-[7-[3-cyano-4-(oxan-4-yloxy)phenyl]furo[3,2-b]pyridin-2-yl]-N-[(3R,4R)-4-(dimethylamino)oxolan-3-yl]-3-methoxy benzamide], the IC50 on TBK1 was under 100 nM; at IKKε it was under 100 nM; in test [1] (setting [3]) it was 100 to 1000 nM.

As to `COc1cc(-c2cc3nccc(-c4ccc(OC5CCOCC5)c(C#N)c4)c3o2)ncc1C(=O)N(C)C` [Compound 391, 6-[7-[3-cyano-4-(oxan-4-yloxy)phenyl]furo[3,2-b]pyridin-2-yl]-4-methoxy-N,N-dimethylpyridine-3-carboxamide], the results for the IC50 (on TBK1; at IKKε; in test [1] (setting [3])) were 100 to 1000 nM, under 100 nM and 1000 to 5000 nM, respectively.

As to `COc1cc(C(=O)N(C)C)ccc1-c1cc2nccc(-c3ccc(N4CCC(F)C4)c(C#N)c3)c2o1` (stereo not drawn) [Compound 35], the half-maximal inhibitory concentration (IC50) at TBK1 was under 100 nM; on IKKε it was under 100 nM; in test [1] (setting [2]), 100 to 1000 nM.

For the compound `COc1cc(C(=O)N2CC[C@@H](F)C2)ccc1-c1cc2nccc(-c3ccc(OC4CCOCC4)c(C#N)c3)c2o1` [Compound 17, 5-{2-[4-((R)-3-Fluoro-pyrrolidine-1-carbonyl)-2-methoxy-phenyl]-furo[3,2-b]pyridin-7-yl}-2-(tetrahydro-pyran-4-yloxy)-benzonitrile], the IC50 at TBK1 was under 100 nM; on IKKε, under 100 nM; in test [1] (setting [2]) it was 100 to 1000 nM.
